Measurements as given in US4968672A, “Adenosine receptor prodrugs” (priority 1987, dated 1990).
Structures can show the parent of a compound that is named as a salt. Where two headings read alike, the source gives them in different places.

Columns and labels:
A1 adenosine receptors = biological target: T1, A1 adenosine receptors (Rattus norvegicus, UniProt P25099); test: membrane binding assay at A1 adenosine receptors (Tables 1 and 2)
T1 construct: rat cerebral cortex membranes; from tissue; host or cells: rat cerebral cortex membranes
T1 sequence (P25099 1-326): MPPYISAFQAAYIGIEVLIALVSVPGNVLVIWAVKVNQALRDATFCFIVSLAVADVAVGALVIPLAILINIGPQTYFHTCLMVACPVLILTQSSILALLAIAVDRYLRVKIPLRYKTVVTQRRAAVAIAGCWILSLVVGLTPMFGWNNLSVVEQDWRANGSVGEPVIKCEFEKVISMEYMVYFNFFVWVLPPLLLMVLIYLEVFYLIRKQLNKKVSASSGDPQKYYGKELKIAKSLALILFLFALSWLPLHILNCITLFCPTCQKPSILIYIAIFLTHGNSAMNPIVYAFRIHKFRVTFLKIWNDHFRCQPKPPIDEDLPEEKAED
Source text: Table 2 lists prodrugs (including Routes A and B of FIG. 2) and chemical intermediates, based on xanthine and adenosine functionalized congener and the method of synthesis. The potency of each compound at A1 adenosine receptors is indicated by the Ki (inverse relationship to potency) in a membrane binding assay.

A1 receptor = biological target: T2, A1 receptor (Rattus norvegicus, UniProt P25099); test: inhibition of [3H]PIA binding to rat cerebral cortex membranes
T2 construct: rat cerebral cortex membranes; from tissue; host or cells: rat cerebral cortex membranes
T2 sequence (P25099 1-326): T1 sequence (P25099 1-326)
Protocol: (§1) Measurements of the potencies of the xanthines as antagonists of NECA-induced stimulation of adenylate cyclase activity in human platetlet membranes and as inhibitors of [^3 H]PIA binding to rat cerebral cortex membranes were carried out as reported previously.

A2 receptor = biological target: T3, A2 receptor (Homo sapiens, UniProt P29274); test: antagonism of NECA-induced stimulation of adenylate cyclase activity in human platelet membranes; format: biochemical; details: antagonism of NECA-stimulated adenylate cyclase, human platelet membranes; means with 95% confidence limits from 3 experiments; read-out: A2 receptor KB
T3 construct: human platetlet membranes; from tissue; host or cells: human platelet membranes
T3 sequence (P29274 whole entry): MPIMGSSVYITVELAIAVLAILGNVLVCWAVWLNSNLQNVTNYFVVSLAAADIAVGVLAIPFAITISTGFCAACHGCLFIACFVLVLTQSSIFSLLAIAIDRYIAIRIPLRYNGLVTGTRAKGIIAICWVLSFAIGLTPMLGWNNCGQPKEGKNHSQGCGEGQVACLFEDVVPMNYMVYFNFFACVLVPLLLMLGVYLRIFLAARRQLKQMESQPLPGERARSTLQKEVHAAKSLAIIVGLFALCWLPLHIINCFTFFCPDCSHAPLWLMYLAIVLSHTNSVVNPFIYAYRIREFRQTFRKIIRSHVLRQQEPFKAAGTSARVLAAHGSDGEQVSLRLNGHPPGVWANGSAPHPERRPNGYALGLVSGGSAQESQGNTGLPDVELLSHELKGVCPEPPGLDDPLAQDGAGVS
Protocol: as §1

[1] = Table 1, prodrug before cleavage, read-out: Ki(nM) at A1 Before Cleavage
[2] = [3H]PIA, rat cerebral cortex membranes, means from two experiments, read-out: A1 receptor Ki
[3] = Table 1, liberated product, read-out: Ki(nM) at A1 After Cleavage

Ki (A1 adenosine receptors; Table 2, read-out: Ki (A1(nM))) [nM] | SMILES | other results
4 | CCCn1c(=O)c2[nH]c(-c3ccc(OCC(=O)NCCNC(=O)CNC(=O)[C@H](Cc4ccc(O)cc4)NC(=O)OCc4ccccc4)cc3)nc2n(CCC)c1=O [CbzTyrGlyXAC] | Ki (A1 adenosine receptors; [1]): 4 nM
4 | CCCn1c(=O)c2[nH]c(-c3ccc(OCC(=O)NCCNC(=O)[C@H](N)Cc4ccc(N)c(I)c4)cc3)nc2n(CCC)c1=O [TFA.HD(p-NH2 -m-I)PheXAC] | 
30 | CCCn1c(=O)c2[nH]c(-c3ccc(OCC(=O)NCCNC(=O)[C@H](CC(=O)O)NC(=O)OC(C)(C)C)cc3)nc2n(CCC)c1=O [BocAspXAC] | 
3.1 | CCCn1c(=O)c2[nH]c(-c3ccc(OCC(=O)NCCNC(=O)CNC(=O)CNC(=O)OCc4ccccc4)cc3)nc2n(CCC)c1=O [CbzGlyGlyXAC] | 
13 | CCCn1c(=O)c2[nH]c(-c3ccc(OCC(=O)NCCO)cc3)nc2n(CCC)c1=O [Compound 39] | Ki (A1 adenosine receptors; [3]): 12 nM
35 | CCCCC/C=C\C/C=C\CCCCCCCC(=O)NCCNC(=O)COc1ccc(-c2nc3c([nH]2)c(=O)n(CCC)c(=O)n3CCC)cc1 [N-linoleyl-XAC] | 
20 | CCCn1c(=O)c2[nH]c(-c3ccc(OCC(=O)NCCNC(=O)[C@H](CC(C)C)NC(C)=O)cc3)nc2n(CCC)c1=O [AcLeuXAC] | 
3.6 | CCCn1c(=O)c2[nH]c(-c3ccc(OCC(=O)NCCNC(=O)CNC(=O)CN)cc3)nc2n(CCC)c1=O [Compound 20] | 
89 | CCCn1c(=O)c2[nH]c(-c3ccc(OCC(=O)NCCNC(=O)[C@@H](Cc4ccc([N+](=O)[O-])cc4)NC(=O)OC(C)(C)C)cc3)nc2n(CCC)c1=O [BocD(p-NO2)PheXAC] | 
170 | CCCn1c(=O)c2[nH]c(-c3ccc(OCC(=O)NCCNC(=O)CN(CC(=O)O)C(=O)OCC4c5ccccc5-c5ccccc54)cc3)nc2n(CCC)c1=O [HO2 CCH2N(FMOC)CH2 COXAC, 8-[N -Carboxymethyl-N -(9-fluorenylmethyloxycarbonyl) -[[[[[[[[[amino]methyl]carbonyl]amino]ethyl]amino]carbonyl]methyl]-oxy]phenyl]-1,3-dipropylxanthine] | 
17 | CCCn1c(=O)c2[nH]c(-c3ccc(OCC(=O)NCCNC(=O)CC[C@H](N)C(=O)O)cc3)nc2n(CCC)c1=O [HGlu(XAC)OH] | 
12 | CCCn1c(=O)c2[nH]c(-c3ccc(OCC(=O)NCCOC(C)=O)cc3)nc2n(CCC)c1=O [Compound 40] | 
10 | CCCn1c(=O)c2[nH]c(-c3ccc(OCC(=O)NCCNC(=O)CNC(=O)CNC(=O)CN)cc3)nc2n(CCC)c1=O [HBr.HGlyGlyGlyXAC] | 
18 | CCCn1c(=O)c2[nH]c(-c3ccc(OCC(=O)NCCNC(=O)CC[C@H](NC(=O)OC(C)(C)C)C(=O)OCc4ccccc4)cc3)nc2n(CCC)c1=O [BocGlu(XAC)OBzl, Boc-glutamyl(gamma-XAC)-alpha-benzyl ester] | 
2.3 | CCCn1c(=O)c2[nH]c(-c3ccc(OCC(=O)NCCNC(=O)[C@H](N)Cc4ccc(N)cc4)cc3)nc2n(CCC)c1=O [TFA.HD(p-NH2)PheXAC] | 
32 | CCCn1c(=O)c2[nH]c(-c3ccc(OCC(=O)NCCNC(=O)[C@@H](Cc4ccc(N)cc4)NC(=O)OC(C)(C)C)cc3)nc2n(CCC)c1=O [Compound 10] | 
10 | CCCn1c(=O)c2[nH]c(-c3ccc(OCC(=O)NCCNC(=O)CNC(=O)CNC(=O)CNC(=O)OCc4ccccc4)cc3)nc2n(CCC)c1=O [CbzGlyGlyGlyXAC] | 
40 | CCCn1c(=O)c2[nH]c(-c3ccc(OCC(=O)NCCNC(=O)c4ccc[n+](C)c4)cc3)nc2n(CCC)c1=O [Compound 43] | Ki (A1 adenosine receptors; [3]): 10 nM; Ki (A1 adenosine receptors; [1]): 10 nM
4.3 | CCCn1c(=O)c2[nH]c(-c3ccc(OCC(=O)NCCNC(=O)[C@H](N)Cc4ccc([N+](=O)[O-])cc4)cc3)nc2n(CCC)c1=O [TFA.HD(p-NO2)PheXAC] | 
8 | CCCn1c(=O)c2[nH]c(-c3ccc(OCC(=O)NCCNC(=O)OCc4ccccc4)cc3)nc2n(CCC)c1=O [NCbzXAC] | 
3.9 | CCCn1c(=O)c2[nH]c(-c3ccc(OCC(=O)NCCNC(=O)CNC(=O)[C@H](Cc4ccc(OC(C)=O)cc4)NC(C)=O)cc3)nc2n(CCC)c1=O [AcTyr(OAc)GlyXAC] | 
150 | CCCn1c(=O)c2[nH]c(-c3ccc(OCC(=O)NCCNC(=O)[C@H](CC(=O)OCc4ccccc4)NC(=O)OC(C)(C)C)cc3)nc2n(CCC)c1=O [BocAsp(OBzl)XAC] | Ki (A1 adenosine receptors; [1]): 150 nM
85 | CCCCCCCC/C=C/CCCCCCCC(=O)OCCNC(=O)COc1ccc(-c2nc3c([nH]2)c(=O)n(CCC)c(=O)n3CCC)cc1 [O-elaidoyl-XHC, Elaidic ester of hydroxy congener] | 

Second part, the compound before the results:

SMILES | Ki (A1 adenosine receptors; Table 2, read-out: Ki (A1(nM))) [nM] | other results
CCCCCCCC/C=C/CCCCCCCC(=O)NCCNC(=O)Cc1ccc(NC(=O)Cc2ccc(Nc3ncnc4c3ncn4[C@@H]3O[C@H](CO)[C@@H](O)[C@H]3O)cc2)cc1 [Compound 37] | < 0.3 | potency in the blocked form (A1 adenosine receptors): highly potent in the blocked form
CCCn1c(=O)c2[nH]c(-c3ccc(OCC(=O)NCCNC(=O)CNC(=O)[C@@H](N)Cc4ccc(O)cc4)cc3)nc2n(CCC)c1=O [Compound 22] |  | Ki (A1 adenosine receptors): 5.3 nM
CCCCCCCCCCCCCC(=O)OCC(COC(=O)CCCCCCCCCCCCC)OC(=O)COc1ccc(-c2nc3c([nH]2)c(=O)n(CCC)c(=O)n3CCC)cc1 [1,3-dimyristin-(2-XCC), 1,3-Dimyristin-2-XCC] | 104 ± 7.7 | Ki (A1 adenosine receptors; [1]): 104 nM
Cc1ccc(NC(=O)COc2ccc(-c3nc4c([nH]3)c(=O)n(C)c(=O)n4C)cc2)cc1 [Compound 57a] |  | Ki (A1 receptor; [2]): 27 nM
CCCCCCCCCCCCCCCCCC(=O)OCCNC(=O)COc1ccc(-c2nc3c([nH]2)c(=O)n(CCC)c(=O)n3CCC)cc1 [O-stearoyl-XHC] | 208 | Ki (A1 adenosine receptors; [1]): 208 nM
CCCCCC=CCC=CCCCCCCCC(=O)NC(Cc1ccc(OC(=O)CCCCCCCC=CCC=CCCCCC)cc1)C(=O)NCC(=O)NCCNC(=O)COc1ccc(-c2nc3c([nH]2)c(=O)n(CCC)c(=O)n3CCC)cc1 (centres unmarked) [Linoleyl-Tyr(O-linoleyl)-GlyXAC] | 20 | Ki (A1 adenosine receptors; [1]): 20 nM
CCCn1c(=O)c2[nH]c(-c3ccc(OCC(=O)NCCNC(=O)[C@@H](NC(=O)[C@@H](N)Cc4ccc(O)cc4)C(C)C)cc3)nc2n(CCC)c1=O [Compound 26] |  | Ki (A1 adenosine receptors): 3 nM
CCCn1c(=O)c2c(nc(-c3ccc(OCC(=O)NCCNC(=O)OCc4ccccc4)cc3)n2Cc2ccccc2)n(CCC)c1=O [NCbz(N7-benzyl)XAC] | 95 | 
CCCCCCCCCCCCCC(=O)NCCNC(=O)COc1ccc(-c2nc3c([nH]2)c(=O)n(CCC)c(=O)n3CCC)cc1 [drawing 10] |  | Ki (A1 adenosine receptors; [1]): 49 nM
CCCn1c(=O)c2[nH]c(-c3ccc(OCC(=O)NCCNC(=O)CN)cc3)nc2n(CCC)c1=O [HGlyXAC] |  | Ki (A1 adenosine receptors; [3]): 2.1 nM
CCCn1c(=O)c2c(nc(-c3ccc(OCC(=O)NCCN)cc3)n2Cc2ccccc2)n(CCC)c1=O [(N7-benzyl)XAC] | 250 | 
CCCCCCCCCCCCCCCCCC(=O)NCCNC(=O)Cc1ccc(NC(=O)Cc2ccc(Nc3ncnc4c3ncn4[C@@H]3O[C@H](CO)[C@@H](O)[C@H]3O)cc2)cc1 [N-stearoyl-ADAC, Stearoyl-ADAC] | 1 | 
CCCCCCCC/C=C\CCCCCCCC(=O)OCC(COP(=O)(O)OCCNC(=O)COc1ccc(-c2nc3c([nH]2)c(=O)n(CCC)c(=O)n3CCC)cc1)OC(=O)CCCCCCC/C=C\CCCCCCCC (centres unmarked) [Compound 32, XCC-phosphatidylethanolamine] | 24 ± 1 | potency at adenosine A1 receptors relative to compound 33 / to hydrolysis product (A1 adenosine receptors): of comparable potency
CCCn1c(=O)c2[nH]c(-c3ccccc3)nc2n(CCC)c1=O [Compound 51c, 1,3-dipropyl-8-phenylxanthine] |  | Ki (A1 receptor; [2]): 13 nM
CCn1c(=O)c2[nH]c(-c3ccc(OCC(=O)N(C)CCN(C)C)cc3)nc2n(CC)c1=O [tri-methyl substition of 56b] |  | Ki (A1 receptor; read-out: Ki (A1-potency)): 1.5 nM
Cn1c(=O)c2[nH]c(-c3ccccc3)nc2n(C)c1=O [Compound 51a] |  | Kb (A2 receptor): 1900 nM
CCCn1c(=O)c2[nH]c(-c3ccc(OCC(=O)NCCNC(=O)[C@@H](N)C(C)C)cc3)nc2n(CCC)c1=O [HValXAC] |  | Ki (A1 adenosine receptors; [3]): 3 nM
CCCn1c(=O)c2[nH]c(-c3ccc(OCC(=O)NCCNC(=O)[C@@H](NC(=O)[C@H](Cc4ccc(OC(C)=O)cc4)NC(C)=O)C(C)C)cc3)nc2n(CCC)c1=O [AcTyr(OAc)ValXAC] | 5 | Ki (A1 adenosine receptors; [1]): 5 nM
CCn1c(=O)c2[nH]c(-c3ccccc3)nc2n(CC)c1=O [Compound 51b] |  | Kb (A2 receptor): 210 nM
CCCn1c(=O)c2[nH]c(-c3ccc(OCC(=O)NCCNC(=O)CC[C@H](N)C(=O)OCc4ccccc4)cc3)nc2n(CCC)c1=O [TFA.HGlu(XAC)OBzl, Glutamic acid (gamma-XAC) alpha benzyl ester trifluoroacetate] |  | Ki (A1 adenosine receptors): 1.8 nM
CCCCC/C=C\C/C=C\CCCCCCCC(=O)NCCNC(=O)Cc1ccc(NC(=O)Cc2ccc(Nc3ncnc4c3ncn4[C@@H]3O[C@H](CO)[C@@H](O)[C@H]3O)cc2)cc1 [N-linoleyl-ADAC] | 0.5 | 
CCCn1c(=O)c2[nH]c(-c3ccc(OCC(=O)NCCNC(=O)[C@@H](NC(=O)[C@H](Cc4ccc(O)cc4)NC(=O)OCc4ccccc4)C(C)C)cc3)nc2n(CCC)c1=O [CbzTyrValXAC] | 3.7 | 
